Results on three compounds are retold here after patent US20030144360A1, “Composition and method for modulating BAR/FXR receptor activity” (Allergan Sales, Inc., priority 2001, published 2003).

One assay concerns the target T1, Gal-L-RAR (Homo sapiens, UniProt P10276).
T1 construct: expressed in transfected cells; host or cells: CV-1
T1 sequence (P10276 156-462 limits assumed): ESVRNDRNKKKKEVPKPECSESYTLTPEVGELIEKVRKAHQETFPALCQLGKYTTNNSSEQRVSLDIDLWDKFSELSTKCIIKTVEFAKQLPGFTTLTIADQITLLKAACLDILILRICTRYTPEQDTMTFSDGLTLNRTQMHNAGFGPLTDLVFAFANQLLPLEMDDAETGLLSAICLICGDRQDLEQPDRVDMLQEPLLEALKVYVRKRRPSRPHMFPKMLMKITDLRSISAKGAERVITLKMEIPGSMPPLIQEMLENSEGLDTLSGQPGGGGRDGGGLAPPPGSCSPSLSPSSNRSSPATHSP
The experiment in a line: Gal-L-RAR fusion with Gal 4 reporter (MH100×4) in CV-1 cells. It counts as cell-based. As to conditions: 5 μM.

In a further assay the target is T2, BAR:RXR heterodimers (UniProt P19793+Q62735).
T2 construct: nucleic acid regions encoding the following full-length proteins were cloned into a CMV expression vector; made in house; host or cells: receptors: in vitro translation; GST-GRIP1: E. coli
T2 sequence (Q62735 1-469): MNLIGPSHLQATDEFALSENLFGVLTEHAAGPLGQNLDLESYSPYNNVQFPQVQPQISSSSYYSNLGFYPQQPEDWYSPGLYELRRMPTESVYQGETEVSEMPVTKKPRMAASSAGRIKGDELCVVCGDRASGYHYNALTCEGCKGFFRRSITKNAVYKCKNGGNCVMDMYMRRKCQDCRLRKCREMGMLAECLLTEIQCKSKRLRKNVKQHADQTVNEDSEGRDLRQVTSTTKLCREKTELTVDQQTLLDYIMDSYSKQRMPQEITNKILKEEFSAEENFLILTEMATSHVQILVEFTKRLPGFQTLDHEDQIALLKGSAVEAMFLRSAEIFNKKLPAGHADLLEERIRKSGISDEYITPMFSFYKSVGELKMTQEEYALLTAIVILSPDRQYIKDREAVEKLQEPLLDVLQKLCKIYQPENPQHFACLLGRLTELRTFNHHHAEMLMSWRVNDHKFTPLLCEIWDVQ
T2 sequence (P19793 1-462): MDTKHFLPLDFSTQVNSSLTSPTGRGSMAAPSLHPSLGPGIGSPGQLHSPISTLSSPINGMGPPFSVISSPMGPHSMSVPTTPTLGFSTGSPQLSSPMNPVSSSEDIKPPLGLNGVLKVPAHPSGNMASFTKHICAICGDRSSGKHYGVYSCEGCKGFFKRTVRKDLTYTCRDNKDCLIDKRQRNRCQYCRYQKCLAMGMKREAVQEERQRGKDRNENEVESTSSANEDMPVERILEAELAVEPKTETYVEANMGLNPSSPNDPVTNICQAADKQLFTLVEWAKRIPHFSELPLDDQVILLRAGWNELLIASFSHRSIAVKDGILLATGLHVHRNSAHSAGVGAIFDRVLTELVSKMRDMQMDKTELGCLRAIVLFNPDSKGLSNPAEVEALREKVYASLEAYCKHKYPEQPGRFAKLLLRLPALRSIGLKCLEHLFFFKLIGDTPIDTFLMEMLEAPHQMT
The experiment in a line: Co-activator (GRIP1) gel shift displacement assay, BAR:RXR heterodimer. It counts as binding. An excerpt: Coactivators, which bind agonist-activated nuclear receptors including, without limitation, RAR and RXR, function to assist the activated nuclear receptor exert its activity as a transcription factor. Characterized co-activators include CBP, p300, RIP140, SRC-1, ACTR, TIF2 (also called GRIP 1) and TIFI. In most cases coactivator will not bind the receptor in the absence of an agonist, moreover, receptor antagonists will often block coactivator binding, either directly or through the recruitment of a corepressor. Coactivator recruitment assays are therefore a valuable method for directly visualizing associative changes to a receptor caused by the addition of a prospective ligand.
GRIP 1 was expressed as a fusion protein with glutathione-S-transferase, an enzyme which selectively binds glutathione and can thus be used as an affinity reagent. See e.g., U.S. Pat. No. 5,654,176. The GST-GRIP1 fusion protein was expressed in E. coli and purified on glutathione-Sepharose columns. In vitro translated BAR/FXR\RXR (0.6-1.2 μl each) and GST-GRIP 1 (5 μg) were incubated for 30 min at room temperature with 100,000 cpm of the E. coli DNA polymerase Klenow fragment-labeled probes in 10 mM Tris (pH 8.0), 50 mM KCl, 6% glycerol, 0.05% NP-40, 1 mM DTT, 12.5 ng/μl poly dI-dC, and the indicated ligands. Complexes were electrophoresed through 5% polyacrylamide gel in […] (45 mM Tris-base, 45 mM boric acid, 1 mM EDTA) at room temperature. Oligonucleotide probes were made to identify specific receptor dimers; an optimized DR-1 (direct repeat 1; a nucleotide sequence motif to which RXR will bind) probe (5′-[…]) (SEQ ID NO: 12) was used for RXR homodimers and the IR-1 sequence of the IBABP promoter, to which the BAR/RXR heterodimer binds, was used for BAR/RXR heterodimers.
We next tested the ability of AGN34 to displace the GRIP-1 co-activator from BAR. […] Competition experiments using the BAR/RXRm heterodimer binds yielded the same results as obtained using the BAR/RXR heterodimer. (FIG. 4D).

Another assay has as its target T3, BAR:RXR heterodimer (Homo sapiens, UniProt P19793+Q96RI1).
T3 construct: expressed in transfected cells
T3 sequence (Q96RI1 1-486): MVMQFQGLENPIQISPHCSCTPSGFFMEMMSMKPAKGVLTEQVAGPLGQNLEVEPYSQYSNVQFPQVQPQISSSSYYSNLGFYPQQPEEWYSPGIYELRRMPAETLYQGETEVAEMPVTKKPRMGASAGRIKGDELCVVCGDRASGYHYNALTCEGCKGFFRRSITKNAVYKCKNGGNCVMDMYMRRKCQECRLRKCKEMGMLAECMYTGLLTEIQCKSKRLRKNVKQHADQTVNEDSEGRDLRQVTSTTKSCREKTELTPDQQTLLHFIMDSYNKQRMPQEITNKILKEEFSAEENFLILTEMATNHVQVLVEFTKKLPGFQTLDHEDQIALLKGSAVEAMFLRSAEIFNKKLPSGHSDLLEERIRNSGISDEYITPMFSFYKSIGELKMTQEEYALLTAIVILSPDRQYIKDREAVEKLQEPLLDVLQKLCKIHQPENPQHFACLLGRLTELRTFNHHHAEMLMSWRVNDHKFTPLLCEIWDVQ
T3 sequence (P19793 1-462): T2 sequence (P19793 1-462)
Nature of the assay: Mammalian two hybrid assay detecting recruitment of CoA. It counts as cell-based.

Method for Gal-L-RAR: The nucleic acid regions encoding the following full-length proteins were cloned into a CMV expression vector. […] The βgal contains the E. coli P-galactosidase coding sequences derived from pCH110 (accession #U02445). RXRm contains a single point mutation (Asp-322-Pro) in the LBD of human RXRα.
CV-1 African Green Monkey cells were grown in Dulbecco's Modified Eagle's medium supplemented with 10% resin-charcoal stripped fetal bovine serum (FBS), 50 U/ml penicillin G and 50 μg/ml streptomycin sulfate (DMEM-FBS) at 37° C. in 5% CO2. One day prior to transfection, cells were plated to 50-80% confluence using phenol red-free DMEM-FBS. […]
The harvested cells were assayed for the presence of luciferase activity. […] Luciferase activity was measured by reaction of the cell lysates with luciferin in a reaction buffer comprising: 20 mM tricine, 1.07 mM Mg(CO3)4-Mg(OH)2-5H2O, 2.67 mM MgSO4.7H2O, 0.1 mM EDTA, 0.5 mM Sodium luciferin, 0.15 mg/ml Coenzyme A, 5 mM DTT, and 0.5 mM adenosine triphosphate (ATP). Resulting chemiluminescence was measured in a luminometer. […]
The transfected cells were then treated with the indicated ligands for 40 hours. Activity was measured using luciferase expression in the cotransfection assay described above. […] Thus, Gal-L-RAR or Gal-L-RXR fusions were transfected into CV-1 cells with a Gal 4 reporter (MH100×4) and the effect of different ligands was evaluated.

Regarding `Cc1cc2c(cc1/C(=C/c1ccc(C(=O)O)cc1)[Si](C)(C)C)C(C)(C)CCC2(C)C` [AGN 29, (Z)-4-[2-(3,5,5,8,8-Pentamethy1-5,6,7,8-tetrahydronaphthalen-2-yl)-2-(trimethylsilyl)vinyl]benzoic Acid], the “activation of RAR” value at Gal-L-RAR was “loss of specificity for RAR”. In addition, the “formation of BAR:RXR:GRIP1 complex” value on BAR:RXR heterodimers (0.75 μM) is “form a complex”.

For the compound `CCCC/C(=C\c1ccc(C(=O)O)cc1)c1ccc2c(c1)C(C)(C)CCC2(C)C` [AGN 31, 4-[2-(5,5,8,8-Tetramethyl-5,6,7,8-tetrahydronaphthalen-2-yl)hex-1-enyl]benzoic Acid], the “activation of RAR” value at Gal-L-RAR is “loss of specificity for RAR”.

For the compound `CCCCCCOc1c(\C(C)=C/C=C/C(C)=C/C(=O)O)cc(C(C)C)cc1C(C)C` [AGN 34, (2E, 4E, 6Z)-7-(2-Hexyloxy-3,5-diisopropylphenyl)-3-methylocta-2,4,6-trienoic Acid], the “doses for full displacement of co-activator, LG 268 versus RXR:BAR-CDCA complexes” value on BAR:RXR heterodimers is “Much lower doses”. Also, the “dissociation of BAR:RXR:GRIP1 complex” value at BAR:RXR heterodimers (0.75 μM AGN 29 as agonist, increasing concentrations of AGN 34) is given as “progressive dissociation of that complex”. Besides, the “displacement of co-activator (GRIP1)” value on BAR:RXR heterodimers (heterodimers in which LG 268 was added) is given as “fully displaces”. Besides, the “recruitment of CoA” value on BAR:RXR heterodimer was “inhibits recruitment”.
